Measured values published in patent US9399028B2, “Treatment of drug resistant cancer” (ROCKEFELLER UNIVERSITY (THE), priority 2012, dated 2016).
“Also recorded” adds a separate entry of the source. Structures can show the parent of a compound that is named as a salt.

Assays:
[1] = test system: ApoE; assay: Gene expression analysis by qRT-PCR in melanoma cells; type: cell-based, human; conditions: 48 hours; for ApoE transcript expression: MeWo, HT-144, WM-266-4 human melanoma lines
Experimental: Total RNA was extracted from various cell lines using the miRvana kit (AM1560, Applied Biosystems, Austin, Tex.). The expression levels of mature miRNAs were quantified using the Taqman miRNA expression assay (4427975-0002228, Applied Biosystems). RNU44 was used as an endogenous control for normalization. For mRNA expression analyses, 600 ng of total RNA was reverse transcribed using the cDNA First-Strand Synthesis Kit (18080-051, Invitrogen), and roughly 200 ng of the resulting cDNA was then mixed with SYBR green PCR Master Mix (4309155, Applied Biosystems) and the appropriate primers. Each reaction was performed in quadruplicate, and mRNA expression was quantified by performing real-time PCR amplification using an ABI Prism 7900HT Real-Time PCR System (Applied Biosystems). GAPDH was used as an endogenous control for normalization. The following primers were used: […]
RNA was extracted from whole cell lysates using the Total RNA Purification Kit (I 7200, Norgen, Thorold, Canada). 600 ng of total RNA was then reverse transcribed into cDNA using the cDNA First-Strand Synthesis Kit (18080-051, Invitrogen), and quantitative real-time PCR amplification was performed as previously described (Pencheva et al., 2012) using an ABI Prism 7900HT Real-Time PCR System (Applied Biosystems, Austin, Tex.). Each PCR reaction was carried out in quadruplicates. Gene expression was normalized to GAPDH, which was used as an endogenous control.
For every sample, 600 ng of RNA was reverse transcribed into cDNA using the cDNA First-Strand Synthesis kit (Invitrogen). Approximately 200 ng of cDNA was mixed with SYBR® green PCR Master Mix and the corresponding forward and reverse primers specific for detection of human ApoE. Each reaction was carried out in quadruplicates, and ApoE mRNA expression levels were measured by quantitative real-time PCR amplification using an ABI Prism 7900HT Real-Time PCR System (Applied Biosystems). The relative ApoE expression was determined using the ΔΔCt method. GAPDH was used as an endogenous control for normalization purposes.

[2] = test system: human melanoma cells and endothelial cells; assay: In vitro cell proliferation, viability and serum starvation survival; type: cell-based; conditions: for cell proliferation or cell viability rates: MeWo, HT-144, SK-Mel-334.2 cells, 1 μM, 5 days
Experimental: To determine the effects of miR-199a or miR-1908 over-expression and combinatorial LNA-induced miRNA inhibition on cell proliferation, 2.5×10^4 cells were seeded in triplicate in 6-well plates, and viable cells were counted after 5 days. […] Viable cells were counted after 8, 24, 48, 72, and 120 hours.
The number of viable cells was counter after 8, 16, and 24 hours.
To determine the effects of GW3965, T0901317, and Bexarotene on in vitro cell growth, 2.5×10^4 melanoma cells were seeded in triplicate in 6-well plates and cultured in the presence of DMSO, GW3965, T0901317, or Bexarotene at 1 μM each. After 5 days, the number of viable and dead cells was counted using the trypan blue dye (72-57-1, Sigma-Aldrich), which selectively labels dead cells.

[3] = MeWo-LM2 or endothelial cells, ApoE 100 μM

Compound: CC(CCOc1cccc(CC(=O)O)c1)N(Cc1cccc(C(F)(F)F)c1Cl)CC(c1ccccc1)c1ccccc1 (stereo not drawn) [SB742881 25]
- ApoE expression induction ([1]; MeWo cells, 500 nM, 1 μM or 2 μM): varied degrees of ApoE expression induction; also recorded: potently induce

Compound: recombinant human ApoE3: recombinant human ApoE3 (4696, BioVision)
- melanoma cell or endothelial cell in vitro proliferation [2, 3]: did not affect
- survival in serum starvation conditions [2, 3]: did not affect

Compound: O=C(O)Cc1cccc(OCCCN(Cc2cccc(C(F)(F)F)c2Cl)CC(c2ccccc2)c2ccccc2)c1 [GW3965 2, 3-[3-[N-(2-Chloro-3-trifluoromethylbenzyl)-(2,2-diphenylethyl)amino]propyloxy]phenylacetic acid hydrochloride]
- cell proliferation or cell viability rates [2]: did not affect
- ApoE transcript expression [1]: potently induce
- expression of ApoE ([1]; parental MeWo cells): increased
- expression of DNAJA4 ([1]; parental MeWo cells): increased

Compound: O=S(=O)(c1ccccc1)N(CC(F)(F)F)c1ccc(C(O)(C(F)(F)F)C(F)(F)F)cc1 [T0901317 1]
- cell proliferation or cell viability rates [2]: did not affect
- ApoE transcript expression [1]: potently induce
